Experimental data as given in patent US10189853B2, “Conformationally restricted 4-substituted-2,6-dimethylfuro[2,3-d]pyrimidines as anti-tumor agents” (DUQUESNE UNIVERSITY OF THE HOLY SPIRIT, priority 2014, dated 2019).

Experiments:
[1] = tested on: HeLa cells; assay: Antiproliferative SRB assay; format: cell-based; details: Homo sapiens, HeLa, 48 h, read-out: IC50 ± SD in HeLa
[2] = tested on: ACHN; assay: NCI 60 cell line panel; format: cell-based; details: Homo sapiens, Renal Cancer
[3] = tested on: CCRF-CEM; assay: NCI 60 cell line panel; format: cell-based; details: Homo sapiens, Leukemia
[4] = tested on: OVCAR-8; assay: NCI 60 cell line panel; format: cell-based; details: Homo sapiens, Ovarian cancer
[5] = target: VEGFR-2 (Homo sapiens (Human), UniProt P35968); assay: VEGFR-2 kinase inhibition, phosphotyrosine ELISA cytoblot; format: cell-based; details: for IC50: U251 cells, phosphotyrosine ELISA
VEGFR-2, sequence (P35968 20-1356): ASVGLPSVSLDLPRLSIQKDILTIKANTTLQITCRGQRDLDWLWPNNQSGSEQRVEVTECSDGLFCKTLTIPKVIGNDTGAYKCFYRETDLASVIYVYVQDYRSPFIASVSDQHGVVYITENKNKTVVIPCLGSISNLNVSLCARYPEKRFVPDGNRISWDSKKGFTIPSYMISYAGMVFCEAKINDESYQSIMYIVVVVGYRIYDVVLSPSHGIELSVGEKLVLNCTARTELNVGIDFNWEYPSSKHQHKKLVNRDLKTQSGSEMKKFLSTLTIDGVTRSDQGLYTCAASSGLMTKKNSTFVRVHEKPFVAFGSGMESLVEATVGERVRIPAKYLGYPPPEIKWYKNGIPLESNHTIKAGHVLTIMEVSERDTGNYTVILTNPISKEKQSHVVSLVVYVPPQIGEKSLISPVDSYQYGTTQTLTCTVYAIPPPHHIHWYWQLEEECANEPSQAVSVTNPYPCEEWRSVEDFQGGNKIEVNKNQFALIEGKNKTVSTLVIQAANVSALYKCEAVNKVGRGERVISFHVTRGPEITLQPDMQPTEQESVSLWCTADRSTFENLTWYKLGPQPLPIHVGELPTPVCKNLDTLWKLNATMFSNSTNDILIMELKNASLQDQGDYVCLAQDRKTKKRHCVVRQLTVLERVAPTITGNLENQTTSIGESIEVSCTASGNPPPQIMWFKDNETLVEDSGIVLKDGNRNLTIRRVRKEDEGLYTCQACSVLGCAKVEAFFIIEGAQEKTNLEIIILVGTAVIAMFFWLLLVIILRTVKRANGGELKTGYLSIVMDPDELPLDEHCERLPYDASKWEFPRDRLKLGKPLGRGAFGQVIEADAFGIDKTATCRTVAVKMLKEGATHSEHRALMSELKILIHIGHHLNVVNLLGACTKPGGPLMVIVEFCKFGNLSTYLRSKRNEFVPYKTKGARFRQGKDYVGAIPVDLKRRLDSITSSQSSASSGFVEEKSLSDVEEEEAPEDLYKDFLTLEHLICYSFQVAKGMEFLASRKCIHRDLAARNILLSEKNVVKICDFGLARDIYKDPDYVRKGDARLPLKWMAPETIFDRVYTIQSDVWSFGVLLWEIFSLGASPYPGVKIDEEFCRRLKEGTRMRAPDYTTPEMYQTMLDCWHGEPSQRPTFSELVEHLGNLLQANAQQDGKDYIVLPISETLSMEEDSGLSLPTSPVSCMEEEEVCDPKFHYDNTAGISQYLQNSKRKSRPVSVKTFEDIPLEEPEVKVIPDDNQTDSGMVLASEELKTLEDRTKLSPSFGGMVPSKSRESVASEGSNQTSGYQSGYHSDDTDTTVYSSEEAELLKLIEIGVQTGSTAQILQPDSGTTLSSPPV
Method: Cells used were tumor cell lines naturally expressing high levels of EGFR (A431), VEGFR-2 (U251), and PDGFR-β (SH-SYSY). […] The reaction was stopped and cells were permeabilized by quickly removing the media from the cells and adding ice-cold Tris-buffered saline (TBS) containing 0.05% Triton X-100, protease inhibitor cocktail and tyrosine phosphatase inhibitor cocktail. The TBS solution was then removed and cells fixed to the plate for 30 min at 60° C. and further incubation in 70% ethanol for an additional 30 min. Cells were further exposed to block (TBS with 1% BSA) for 1 h, washed, and then a horseradish peroxidase (HRP)-conjugated phosphotyrosine (PY) antibody was added overnight.

[6] = tested on: MDA-435 cells; assay: Antiproliferative SRB assay; format: cell-based; details: MDA435, 48 h, read-out: IC50 ± SD in MDA-435 cells
[7] = tested on: COLO 205; assay: NCI 60 cell line panel; format: cell-based; details: Homo sapiens, Colon Cancer
[8] = tested on: SNB-75; assay: NCI 60 cell line panel; format: cell-based; details: Homo sapiens, CNS Cancer
[9] = tested on: IGROV1; assay: NCI 60 cell line panel; format: cell-based; details: Homo sapiens, IGROV-1, Ovarian cancer
[10] = tested on: OVCAR-5; assay: NCI 60 cell line panel; format: cell-based; details: Homo sapiens, Ovarian cancer
[11] = tested on: BT-549; assay: NCI 60 cell line panel; format: cell-based; details: Homo sapiens
[12] = tested on: MDA-MB-231/ATCC; assay: NCI 60 cell line panel; format: cell-based; details: Homo sapiens, Breast Cancer
[13] = tested on: SKOV3 cells; assay: Antiproliferative SRB assay; format: cell-based; details: Homo sapiens, SK-OV-3, 48 h, read-out: IC50 ± SD in SKOV3 cells
[14] = tested on: HS 578T; assay: NCI 60 cell line panel; format: cell-based; details: Homo sapiens, Breast Cancer
[15] = tested on: SF-268; assay: NCI 60 cell line panel; format: cell-based; details: Homo sapiens, CNS Cancer
[16] = tested on: SN 12C; assay: NCI 60 cell line panel; format: cell-based; details: Homo sapiens, SN12C, Renal Cancer
[17] = tested on: SF-539; assay: NCI 60 cell line panel; format: cell-based; details: Homo sapiens, CNS Cancer
[18] = tested on: MOLT-4; assay: NCI 60 cell line panel; format: cell-based; details: Homo sapiens, Leukemia
[19] = tested on: OVCAR-3; assay: NCI 60 cell line panel; format: cell-based; details: Homo sapiens, Ovarian cancer
[20] = tested on: MDA-MB-468; assay: NCI 60 cell line panel; format: cell-based; details: Homo sapiens, Breast Cancer
[21] = tested on: SW-620; assay: NCI 60 cell line panel; format: cell-based; details: Homo sapiens, Colon Cancer
[22] = tested on: NCI-H226; assay: NCI 60 cell line panel; format: cell-based; details: Homo sapiens, NSCLC
[23] = tested on: U251; assay: NCI 60 cell line panel; format: cell-based; details: Homo sapiens, U-251, CNS Cancer
[24] = tested on: CAKI-1; assay: NCI 60 cell line panel; format: cell-based; details: Homo sapiens, Renal Cancer
[25] = tested on: NCI-H522; assay: NCI 60 cell line panel; format: cell-based; details: Homo sapiens, NSCLC
[26] = tested on: HT29; assay: NCI 60 cell line panel; format: cell-based; details: Homo sapiens, HT-29, Colon Cancer
[27] = tested on: OVCAR-4; assay: NCI 60 cell line panel; format: cell-based; details: Homo sapiens, Ovarian cancer
[28] = tested on: NCI/ADR-RES; assay: NCI 60 cell line panel; format: cell-based; details: Homo sapiens, Ovarian cancer
[29] = tested on: SNB-19; assay: NCI 60 cell line panel; format: cell-based; details: Homo sapiens, CNS Cancer
[30] = tested on: M14; assay: NCI 60 cell line panel; format: cell-based; details: Homo sapiens, Melanoma
[31] = tested on: WTβ3 cells (HeLa overexpressing βIII tubulin); assay: Antiproliferative SRB assay; format: cell-based; details: for IC50: Homo sapiens, HeLa, SRB, 48 h, read-out: IC50 ± SD in WTβ3
[32] = tested on: cellular microtubules in A-10 cells; assay: Microtubule depolymerization, indirect immunofluorescence; format: cell-based; details: for effect on cellular microtubules: in words
Method: Evaluation of microtubule inhibition was performed using previously described methods.^22 Indirect immunofluorescence was used to evaluate the effects of the compounds on cellular microtubules as described previously.^38 Briefly, A-10 cells were treated for 18 h with vehicle (DMSO) or a compound, and microtubule effects were evaluated microscopically using β-tubulin antibody. The EC50 was calculated from 3 independent experiments and expressed as the mean±SD.

[33] = tested on: SK-OV-3; assay: NCI 60 cell line panel; format: cell-based; details: Homo sapiens, Ovarian cancer
[34] = tested on: HCT-116; assay: NCI 60 cell line panel; format: cell-based; details: Homo sapiens, Colon Cancer
[35] = tested on: SF-295; assay: NCI 60 cell line panel; format: cell-based; details: Homo sapiens, CNS Cancer
[36] = tested on: NCI-H460; assay: NCI 60 cell line panel; format: cell-based; details: Homo sapiens, NSCLC
[37] = tested on: KM12; assay: NCI 60 cell line panel; format: cell-based; details: Homo sapiens, Colon Cancer
[38] = tested on: MDA-MB-435; assay: NCI 60 cell line panel; format: cell-based; details: Homo sapiens, Melanoma
[39] = tested on: RXF 393; assay: NCI 60 cell line panel; format: cell-based; details: Homo sapiens, Renal Cancer
[40] = tested on: A431 cancer cells; assay: A431 cytotoxicity (cell proliferation); format: cell-based, human; details: Homo sapiens, A-431
[41] = tested on: HOP-62; assay: NCI 60 cell line panel; format: cell-based; details: Homo sapiens, NSCLC
[42] = tested on: NCI-H23; assay: NCI 60 cell line panel; format: cell-based; details: Homo sapiens, NSCLC
[43] = tested on: UO-31; assay: NCI 60 cell line panel; format: cell-based; details: Homo sapiens, Renal Cancer
[44] = tested on: TK-10; assay: NCI 60 cell line panel; format: cell-based; details: Homo sapiens, Renal Cancer
[45] = tested on: K-562; assay: NCI 60 cell line panel; format: cell-based; details: Homo sapiens, K562, Leukemia
[46] = tested on: LOX IMVI; assay: NCI 60 cell line panel; format: cell-based; details: Homo sapiens, Melanoma
[47] = tested on: HCT-15; assay: NCI 60 cell line panel; format: cell-based; details: Homo sapiens, Colon Cancer
[48] = tested on: SK-MEL-5; assay: NCI 60 cell line panel; format: cell-based; details: Homo sapiens, Melanoma
[49] = tested on: 786-0; assay: NCI 60 cell line panel; format: cell-based; details: Homo sapiens

## Cc1nc(N(C)c2ccc3occc3c2)c2cc(C)oc2n1 [Compound 7, N-1-benzofuran-5-yl-N,2,6-trimethylfuro[2,3-d]pyrimidin-4-amine]
[1]
  IC50: 302 ± 23.4 nM
[2]
  GI50: 265 nM
[3]
  GI50: 121 nM
[4]
  GI50: 330 nM
[5]
  IC50: 5.8 ± 0.73 nM
[5]; vs sunitinib
  fold better than sunitinib, VEGFR-2: 3 fold
[6]
  IC50: 133 ± 1.7 nM
[7]
  GI50: 139 nM
[8]
  GI50: 103 nM
[9]
  GI50: 142 nM
[10]
  GI50: 531 nM
[11]
  GI50: 432 nM
[12]
  GI50: 223 nM
[13]
  IC50: 425 ± 53.1 nM
[14]
  GI50: 51.7 nM
[15]
  GI50: 527 nM
[16]
  GI50: 611 nM
[17]
  GI50: 60.9 nM
[18]
  GI50: 211 nM
[19]
  GI50: 30 nM
[20]
  GI50: 31.5 nM
[21]
  GI50: 58.8 nM
[22]
  GI50: 217 nM
[23]
  GI50: 84 nM
[24]
  GI50: 57.9 nM
[25]
  GI50: 29.9 nM
[26]
  GI50: 51.9 nM
[27]
  GI50: 553 nM
[28]
  GI50: 37.6 nM
[29]
  GI50: 93.6 nM
[30]
  GI50: 47.3 nM
[31]
  IC50: 243 ± 15.1 nM
[31]; WTβ3 vs HeLa
  Rr value (relative resistance): 0.8
[32]; EC50 MT depolymerization / IC50 MDA-435
  EC50/IC50 ratio: 28
[32]
  effect on cellular microtubules: dose-dependent loss of cellular microtubules
[33]
  GI50: 98 nM
[34]
  GI50: 77.1 nM
[35]
  GI50: 41.7 nM
[36]
  GI50: 138 nM
[37]
  GI50: 58.4 nM
[38]
  GI50: 21.1 nM
[39]
  GI50: 57.2 nM
[40]
  IC50: 73.2 ± 10.1 nM
[41]
  GI50: 75.2 nM
[42]
  GI50: 206 nM
[43]
  GI50: 278 nM
[44]
  GI50: 382 nM
[45]
  GI50: 40.4 nM
[46]
  GI50: 162 nM
[47]
  GI50: 51.9 nM
[48]
  GI50: 50.4 nM
[49]
  GI50: 1040 nM

## COc1ccc2c(c1)CCCN2c1nc(C)nc2oc(C)cc12 [Compound 10, 4-(6-methoxy-3,4-dihydroquinolin-1(2H)-yl)-2,6-dimethylfuro[2,3-d]pyrimidine]
[1]
  IC50: 13.5 ± 0.5 nM
[2]
  GI50: < 10 nM
[3]
  GI50: < 10 nM
[4]
  GI50: < 10 nM
[5]
  IC50: 33.2 ± 5 nM
[6]
  IC50: 9.8 ± 0.9 nM
[7]
  GI50: < 10 nM
[8]
  GI50: < 10 nM
[9]
  GI50: < 10 nM
[10]
  GI50: 43 nM
[11]
  GI50: < 10 nM
[12]
  GI50: 11.4 nM
[13]
  IC50: 12.9 ± 1.2 nM
[14]
  GI50: < 10 nM
[15]
  GI50: 16.8 nM
[16]
  GI50: < 10 nM
[17]
  GI50: < 10 nM
[18]
  GI50: 15 nM
[19]
  GI50: < 10 nM
[20]
  GI50: < 10 nM
[21]
  GI50: < 10 nM
[22]
  GI50: 13 nM
[23]
  GI50: < 10 nM
[24]
  GI50: < 10 nM
[25]
  GI50: < 10 nM
[26]
  GI50: < 10 nM
[27]
  GI50: 51 nM
[28]
  GI50: < 10 nM
[29]
  GI50: < 10 nM
[30]
  GI50: < 10 nM
[31]
  IC50: 9.1 ± 1.8 nM
[32]; A-10 cells, 18 h, read-out: EC50 for MT depolymerization in A-10 cells
  EC50: 21 nM
[32]
  effect on cellular microtubules: dose-dependent loss of cellular microtubules
[33]
  GI50: < 10 nM
[34]
  GI50: < 10 nM
[35]
  GI50: < 10 nM
[36]
  GI50: < 10 nM
[37]
  GI50: < 10 nM
[38]
  GI50: < 10 nM
[39]
  GI50: < 10 nM
[40]
  IC50: 18 ± 2.9 nM
[41]
  GI50: < 10 nM
[42]
  GI50: < 10 nM
[43]
  GI50: < 10 nM
[44]
  GI50: < 10 nM
[45]
  GI50: < 10 nM
[46]
  GI50: < 10 nM
[47]
  GI50: < 10 nM
[48]
  GI50: < 10 nM
[49]
  GI50: < 10 nM
